Source: ChEMBL document CHEMBL1687773 (Antimicrob Agents Chemother, 2010)

Tests used:
[1] = test system: Human immunodeficiency virus 1; experiment: Antiviral activity against HIV1 NL4-3 infected in human MT2 cells assessed as inhibition of virus-induced cell death at 0.5 multiplicities of infection after 6 days; format: functional, organism-based; details: Human immunodeficiency virus 1, NL4-3, MT2, 144 h
[2] = test system: Human immunodeficiency virus 1; experiment: Antiviral activity against HIV1 NL4-3 harboring reverse transcriptase V108I, E138K, F227F/L mutant infected in human SupT1 cells derived from 11 viral passages with lersivirine assessed as inhibition of viral replication after 21 days relative to drug sensitive HIV1 NL4-3; format: functional, SUP-T1
[3] = test system: Human immunodeficiency virus 1; experiment: Antiviral activity against HIV1 NL4-3 harboring reverse transcriptase L100I, K103Q, H221H/Y mutant infected in human SupT1 cells derived from 11 viral passages with efavirenz assessed as inhibition of viral replication after 21 days relative to drug sensitive HIV1 NL4-3; format: functional, SUP-T1
[4] = test system: Human immunodeficiency virus 1; experiment: Antiviral activity against HIV1 NL4-3 infected in human SupT1 cells derived from 11 viral passages assessed as inhibition of viral replication after 21 days relative to drug sensitive HIV1 NL4-3; format: functional, SUP-T1
[5] = test system: Human immunodeficiency virus 1; experiment: Antiviral activity against HIV1 NL4-3 harboring reverse transcriptase V108I, H221Y, F227F/L, M230M/I mutant infected in human SupT1 cells derived from 11 viral passages with lersivirine assessed as inhibition of viral replication after 21 days relative to drug sensitive HIV1 NL4-3; format: functional, SUP-T1
[6] = test system: Human immunodeficiency virus 1; experiment: Antiviral activity against HIV1 NL4-3 harboring reverse transcriptase V108I, E138K mutant infected in human SupT1 cells derived from 9 viral passages with lersivirine assessed as inhibition of viral replication after 21 days relative to drug sensitive HIV1 NL4-3; format: functional, SUP-T1

SMILES	EC50 [1]	fold change (FC) [2]	fold change (FC) [3]	fold change (FC) [4]	fold change (FC) [5]	fold change (FC) [6]
CC(C)(C)NC(=O)[C@@H]1CN(Cc2cccnc2)CCN1C[C@@H](O)C[C@@H](Cc1ccccc1)C(=O)N[C@H]1c2ccccc2C[C@H]1O	0.5 nM					
C=C(C)[C@@H]1CC[C@]2(C(=O)O)CC[C@]3(C)[C@H](CC[C@@H]4[C@@]5(C)CC[C@H](OC(=O)CC(C)(C)C(=O)O)C(C)(C)[C@@H]5CC[C@]43C)[C@@H]12 [BEVIRIMAT]	0.5 nM					
CC(C)Nc1cccnc1N1CCN(C(=O)c2cc3cc(NS(C)(=O)=O)ccc3[nH]2)CC1 [DELAVIRDINE]		1.8	16.4	0.3	0.2	1.5
Cc1cc(C#N)cc(C)c1Oc1nc(Nc2ccc(C#N)cc2)nc(N)c1Br [ETRAVIRINE]	0.5 nM					
Cc1ccnc2c1NC(=O)c1cccnc1N2C1CC1 [NEVIRAPINE]		12.2	1	0.2	6.4	0.9
Cc1cn([C@H]2C[C@H](N=[N+]=[N-])[C@@H](CO)O2)c(=O)[nH]c1=O [ZIDOVUDINE]		0.6	0.1	0.2	0.1	0.4
